# Measurements published in US20050186287A1, “Copper agonist that binds on the copper binding site of APP and/or exerts an inhibiting effect on the release of amyloid Abeta peptide” (priority 1999, published 2005).
# What was measured:
# [1] = test system: Aβ peptide with the human sequence; test: Aβ production in CNS and blood of transgenic mice given Zn(II); assay type: in vivo; conditions: orally, i.v., i.p., s.c. and i.c.
# Method: (2) Primary neurons were isolated from transgenic mice which expressed the Aβ peptide with the human sequence, and their Aβ production was determined as described in (1).
# (3) The above mentioned Zn(II) concentrations in PBS were applied to transgenic mice orally, i.v., i.p., s.c. and i.c. (see (2)) and the Aβ production was determined in the CNS and in the blood (which was withdrawn from the caudal vein) as outlined above in (1). The serum obtained from the caudal vein of the mice (150-200 μl) is filled using PBS buffer up to a volume of 500 μl and incubated with 5 μg monoclonal antibody WO-2 (Ida et al., supra) and 20 μl of a 1:1 suspension of protein G sepharose overnight at 4° C. on an overhead shaker. The resulting supernatant is then incubated with polyclonal antibodies (22734/6) against APP and the immunocomplexes are analyzed as described above in (1). The Aβ immunocomplexes are separated by means of 12% bis-tricin Novex gels in accordance with the instructions of the manufacturer and the relevant molecular weight range is analyzed after the transfer of the proteins to a nitrocellulose filter (380 mA at 4° C. for 40 minutes) with the monoclonal antibody WO-2 using the ECL technique according to Ida et al. The result here was also that a decrease of the Aβ production could be obtained from a concentration of 50 μM Zn(II).
# [2] = test system: APP processing in CHO cells (K1, APP695); test: APP processing in parental CHO-K1 cells transfected with APP695 (35S-methionine labeling, immunoprecipitation); assay type: cell-based, human
# From the text: (§1) CHO cells were transfected with a c-myc-tagged APP695 vector (Peraus et al., J. Neurosci 17, page 7714-7724 (1997)) or with the expression vector (pcDNA3) by means of a highly efficient calcium phosphate transfection (Chen et al., Biotechniques 6, pages 632-638 (1988). The pSP65 (Invitrogen company) N-tag-APP 695 DNA was cloned into the vector pcDNA3 (Invitrogen/ITC Biotechnology, Heidelberg) using the SmaI or EcoRV cloning sites. The transfection efficiency was checked by means of immunoprecipitation of APP with polyclonal rabbit-anti-c-myc antibody (18/47; produced against the amino acid sequence EQKLISEEDL of the c-myc sequence; from Eurogentec, Seraing, Belgium) and immunoblots using the monoclonal mouse antibody 22C11 (Boehringer Mannheim) in the “ECL” detection system (Amersham, Braunschweig). The parental CHO-K1 cells and the copper-resistant cell variant CUR3 were cultured at 37° C. in “Eagles” medium (BME), to which 2 mM L-glutamine, 0.1 mM proline, 20 mM HEPES and 10% fetal calf serum (Boehringer Ingelheim) were added. The basic copper concentration was 0.8 μM. CUR3 cells were cultured in a medium with 200 μM of copper added.
# (§2) Stably transfected CHO cells of a culture dish (60 mm) were treated for 4 hours with 2 ml essential minimum medium (MEM) which contained no methionine (Sigma company, Munich) and was supplemented with 220 μCi [^35S]methionine (Amersham company, Braunschweig) and 5% N2. The conditioned medium (CM) and the cells were collected and immunorepcipitated. The protein concentrations were determined beforehand by means of a “BioRad” protein assay (Bradford et al., Anal. Biochem. 72, pages 248-254 (1976)) or the radioactively labeled proteins were precipitated with 10% trichloroacetic acid (TCA) and the incorporated [^35S]methionine was measured (Beckman LS 6000IC). The cells were lyzed in extraction buffer which contained 50 mM Tris-CHl (pH value 7.5), 150 mM NaCl, 2 mM EDTA, 2% triton X-100, 2% NP40, 10 μg/ml aprotinin and 10 μg/ml leupeptin. For removing cell debris, the lysate and the medium were centrifuged for 10 minutes at 13,000×g and the medium was adjusted to 25 mM Tris-CHl (pH value 8.5), 1 mM PMSF, 10 μg/ml aprotinin, 10 μg/ml leupeptin, 0.5% triton X-100 and 0.5% NP40. The solubilized proteins were diluted in 100 mM Tris-HCl (pH value 7.5), 300 mM NaCl and 4 mM EDTA at a concentration of 1:2. The supernatants were incubated overnight at 4° C. with APP antibodies with end-over-end rotation in an overhead shaker. In some experiments, the resulting supernatants were then analyzed using Aβ antiserum. Immunocomplexes were obtained with protein A sepharose and analzyed as described in (Weidemann et al., Cell 57, pages 115-126 (1989)).
# (§3) For detecting APP, polyclonal rabbit antibodies directed against recombinant Fd-APP770 (antiserum 22734/6 against the amino acid residues 18-687 of APP770 or antiserum 23850/6 against the APP amino acid residues 18-491 (FIG. 1) were diluted at a concentration of 1:500 for precipitation. The antisera were produced in a laboratory according to standard methods known to the person skilled in the art. Aβ, p3.5 and […] were recognized by the polyclonal antibodies 830 (diluation 1:50; Aβ, p3.5 and p3 were likewise precipitated) which had been produced against a synthetic peptide corresponding to the Aβ amino acid residues 1-40 (FIG. 1). Aβ and its derivatives were separated by 10-20% Tris-tricin-polyacrylamide gels and APP using 7% Tris-glycin-polyacrylamide gels or 7% Tris-tricin-polyacrylamide gels. For immunoblots cell extracts and extracellular medium were precipitated with 10% TCA, washed with acetone and dissolved in sample buffer. After the electrophoresis, the gels were further processed as described in (Simons et al., J. Neurosci 16, pages 899-908 (1996)) and quantified with the “Fuji-Bas-PhosphorImager” system. The data were expressed as average values +/− standard deviation and, unless indicated otherwise, they represent the result of at least two separate experiments. […]
# [3] = test system: CHO cells stably transfected with human APP695; test: Aβ production in CHO cells stably transfected with human APP695, cell variant not given; assay type: cell-based
# Method: The employed Zn^2+ concentrations were 10 μM, 50 μM, 100 μM and 200 μM. Thereafter, it was studied from which concentration of Zn(II) the release of the Aβ peptide can be inhibited. The following experiments were carried out for this purpose:
# (1) CHO cells which were stably transfected with human APP695 were incubated in MEM medium with the above-mentioned concentrations of Zn(II) (10 to 200 μM in PBS). CHO cells with copper ions (10 to 50 μM in PBS) or without any addition were incubated as controls. The production of Aβ (total), Aβ40 and Aβ42 was determined qualitatively and quantitatively with polyclonal and monoclonal antibodies. APP, Aβ and p3 were detected according to biosynthetic labeling with ^35S methionine as followed. The stably transfected CHO cells, which were incubated as mentioned above with the respective substances, were incubated for four hours with 220 μCi ^35S methionine as follows. […] The protein concentrations were determined beforehand using the protein detection kit from BioRad company and the amount of incorporated radioactivity was determined via scintillation counting. […] The supernatants were incubated with the above mentioned polyclonal APP and Aβ antibodies overnight at 4° C., the immunocomplexes formed were isolated with protein A sepharose and analyzed according to the method described in Ida et al., J. Biol. Chem. 271, pp. 22908-22914.
# [4] = test system: APP processing in CHO cells (CUR3, APP695); test: APP processing in copper-resistant CHO-CUR3 cells transfected with APP695 (35S-methionine labeling, immunoprecipitation); assay type: cell-based, human
# From the text: as §1, §2, §3
# [5] = test system: CHO cells; test: Viability of CHO cells (LDH outflow); assay type: cell-based; conditions: different copper concentrations, 4 h labeling, entire experiment
# Method: During the labeling period copper chloride or zinc chloride (concentrations: 5 μM to 200 μM) were added to the culturing medium. D(−)-penicillamine (PEN; Sigma), bathocuproin-disulfonate (BC; Aldrich) and 1,10-phenanthroline ([…]; Sigma) were added to the medium up to a final concentration of 100 μM (PEN and BC) or 200 μM (PEN). The viability of the cells was measured by means of the lactate dehydrogenase (LDH) outflow into the culture (41). The LDH outflow was measured as enzyme activity (units/liter) after 2 and 4 hours in the medium of 70% confluent monolayers of CHO cells in “Eagle” medium modified according to Dulbecco (DMEM)
# For investigating the regulation of the APP metabolism by copper ions, CHO cells stably transfected with APP695 were labeled for 4 hours with ^35S-labeled methionine in the presence of different copper concentrations and following immunoprecipitation with polyclonal antibodies which detect APP (22734/6) or detect Aβ and p3 ([…]), the secretions of the APP ectodomain, of Aβ and p3 were measured. […] APP695 derivatives released in conditioned medium were detected as bands of 105 and 97.5 kDa (FIG. 3b), they probably differing in that the upper band has a higher content of sialic acids.
smiles,measurement,setting,value
"[Cl-].[Cl-].[Zn+2] [Zn(II), zinc chloride]",Zn(II) concentration from which a decrease of the Aβ production could be obtained,[1],≥ 50 µM
same,secretion of APP,"[2]; CHO-K1 cells, Zn(II) concentrations above 50 μM",lowered secretion
same,Aβ production reduced by,"[2]; K1 cells, 50 μM Zn(II)",20%
same,Aβ production reduced by,"[2]; K1 cells, 200 μM Zn(II)",60%
same,Zn(II) concentration from which Aβ production could be reduced drastically,"[3]; CHO cells, MEM medium, 10 to 200 μM Zn(II) tested",≥ 50 µM
same,Aβ production reduced by,[4]; 50 μM Zn(II),60%
same,Aβ production reduced by,[4]; 100 μM Zn(II),90%
same,Aβ production reduced by,[4]; 200 μM Zn(II),99%
same,secretion of APP,[4]; Zn(II) concentrations above 50 μM,lowered secretion
[Ca+2] [Ca(II)],Aβ production,"[3]; above 200 μM, detection limit reached",no further decrease
"[Cl][Cu][Cl] [Cu(II), copper chloride]","Aβ, [%] increase/decrease as compared to standard conditions","[2]; K1 cells, 10 μM Cu(II), 4 h",20%
same,"p3, [%] increase/decrease as compared to standard conditions","[2]; K1 cells, 10 μM Cu(II), 4 h",154%
same,"APP695, [%] increase/decrease as compared to standard conditions","[2]; K1 cells, 10 μM Cu(II), 4 h, cell lysate (cAPP)",295%
same,"SAPP695c, [%] increase/decrease as compared to standard conditions","[2]; K1 cells, 10 μM Cu(II), 4 h, soluble APP695 in medium",475%
same,sAPP751/770 level,"[2]; K1 cells, 10 μM copper, endogenous KPI-containing isoforms",275%
same,Aβ levels,"[2]; K1 cells, Cu(II) concentrations below the basal level (0.8 μM)",increased drastically
same,Cu(II) concentration at which the increase in sAPP695 reached a maximum,"[2]; K1 cells, conditioned medium",10 µM
same,Aβ production,"[2]; K1 cells, increasing copper concentrations",below the detection limit
same,viability of the cell lines,[5],no reduced viability
same,"APP695, [%] increase/decrease as compared to standard conditions","[4]; 50 μM Cu(II), 4 h, cell lysate (cAPP)",550%
same,"p3, [%] increase/decrease as compared to standard conditions","[4]; 50 μM Cu(II), 4 h, medium",270%
same,"Aβ, [%] increase/decrease as compared to standard conditions","[4]; 50 μM Cu(II), 4 h, medium, % of basal concentration",20%
same,"SAPP695c, [%] increase/decrease as compared to standard conditions","[4]; 50 μM Cu(II), 4 h, soluble APP695 in conditioned medium, relative to basal medium (0.8 μM Cu)",265%
same,Aβ levels,[4]; Cu(II) concentrations below the basal level (0.8 μM),increased drastically
same,Aβ concentration,[4]; above 100 μM copper,hardly detectable
same,secretion of p3,[4]; between 20 μM and 50 μM copper in the medium,270%
same,Cu(II) concentration at which the increase in sAPP695 reached a maximum,[4]; conditioned medium,50 µM
same,percentage of cAPP,[4]; copper concentration of 50 μM exceeded in the medium,550%
same,p3.5 concentration,[4]; increasing copper (50 μM and above),strongly lowered
